Measurements from patent publication US11225469B2, “Inhibitors of phosphoglycerate dehydrogenase (PHGDH) and uses thereof” (Whitehead Institute for Biomedical Research, priority 2015, dated 2022).
One block for each molecule: values may come before it.

How the values were obtained:
[1] = target: ALDH (Homo sapiens (Human), UniProt P00352); experiment: Counter-screen against ALDH; format: biochemical; details: Table E11
[2] = target: GAPDH (Homo sapiens (Human), UniProt P04406); experiment: Counter-screen against GAPDH; format: biochemical; details: Table E11
Description: GAPDH substrate buffer contained 210 mM Tris pH 7.4, 2.5 mM NaH2PO4 pH 7.4, 2 mM DL-Glyceraldehyde 3-phosphate, 1.75 mM MgCl2, 0.01 mM NAD+, 0.11 mM resazurin, 0.2 mg/mL BSA, and 0.01% Tween-20. GAPDH enzyme buffer contained 50 mM Tris pH 7.4, 100 mM NaCl, 0.02 mM TCEP, 0.01 mM EDTA, 0.1 mg/mL BSA, 0.42 mg/mL diaphorase, and 2.5 nM GAPDH. The GAPDH, GPD1, and GPD1L assays were run in 384-well plates using the same protocol and readout as the PHGDH assay. […] GPD1 enzyme buffer contained 50 mM Tris pH 7.4, 100 mM NaCl, 0.08 mM TCEP, 0.4 mg/mL BSA, 0.03 μM EDTA, and 0.8 nM GPD1. 70 μL of substrate buffer were mixed with 10 μL enzyme buffer. GPD1L substrate buffer contained 200 mM Tris pH 7.4, 0.05 mM sn-G3-P, 2 mM MgCl2, 0.04 mM NAD+, 0.11 mM resazurin, 0.1 mg/mL BSA, and 0.02% Tween-20. GPD1L enzyme buffer contained 50 mM Tris pH 7.4, 100 mM NaCl, 0.02 mM TCEP, 0.42 mg/mL diaphorase, 0.1 mg/mL BSA, 0.008 μM EDTA, and 16 nM GPD1L. 40 μL of substrate buffer were mixed with 40 μL of enzyme buffer.
The GAPDH and GPD1L assays were read using the same protocol as the PHGDH assay. The GPD1 assay was read using loss of NADH fluorescence (λex=340 nm and λem=460 nm).

[3] = target: HSD17B4 (Homo sapiens (Human), UniProt P51659); experiment: Counter-screen against HSD17B4; format: biochemical; details: Table E11
[4] = system: panel of other dehydrogenases; experiment: Panel of other dehydrogenases; format: biochemical
[5] = system: panel of 168 GPCRs; experiment: Cross-reactivity in a panel of 168 GPCRs
[6] = target: T1, PHGDH (Homo sapiens (Human), UniProt O43175); experiment: Differential scanning fluorimetry; format: binding
Description: Destabilization has been previously observed in the specific binding of small molecules to their protein targets (see, e.g., Hamiaux, C. et al. “DAD2 is an α/β hydrolase likely to be involved in the perception of the plant branching hormone, strigolactone.” Curr Biol 22, 2032-2036 (2012)).
Differential scanning fluorimetry assays were carried out in 20 mM TEA pH 8, 100 mM NaCl, 1× SYPRO Orange (Sigma), 2 μM PHGDH in a volume of 10 μL. Unfolding was monitored using a LightCycler 480 II real-time PCR instrument (λex=465 nm and λem=580 nm) over a linear 20 to 85° C. gradient. Plots of the first derivative of fluorescence vs. temperature were generated in LightCycler software.

[7] = system: MDA-MB-468 cells; experiment: Metabolite profiling and 13C labeling in MDA-MB-468 cells (LC-MS); format: cell-based, human; details: washout
Description: To track the effects of PHGDH inhibition on glycolysis and serine biosynthesis, MDA-MB-231 and MDA-MB-468 cells were fed universally labeled carbon-13 glucose and the intracellular ratio of labeled to unlabeled glucose was measured at the times indicated in FIG. 3E.
(§1) Cells were evenly seeded at 400,000 cells per well of a 6-well plate and allowed to attach for 24 hours. Prior to all labeling experiments, cells were pretreated with 10 μM compound or an equivalent volume of DMSO in RPMI for 1 hour. For steady-state metabolite concentrations, cells were washed with PBS prior to pretreatment and treatment in RPMI lacking serine and glycine. For labeling experiments, U-^13C-glucose, U-^13C-serine, or U-^13C-glycine replaced the corresponding unlabeled RPMI component. Cells were washed in 4° C. 0.9% (w/v) NaCl in LCMS-grade water and extracted in 1 mL/well of 80:20 (v/v) methanol:water with 0.01 ng/mL Val-d8 and Phe-d8 as internal extraction standards. The extraction solvent was dried under nitrogen gas and metabolite samples were stored at −80° C. until analysis. Triplicate identically seeded wells were trypsinzed and analyzed with a Multisizer Coulter Counter (Beckman Coulter) to obtain cell counts and total cell volumes for normalization.
Dried metabolites were resuspended in 100 μL water, centrifuged at 13,000×g at 4° C. for 10 minutes, and the supernatant recovered for analysis. Chromatographic separation was achieved by injecting 1 pi of sample on a SeQuant ZIC-pHILIC Polymeric column (2.1 3 150 mm […], EMD Millipore). Flow rate was set to 0.1 ml per minute, column compartment was set to 25° C., and autosampler sample tray was set to 4° C. Mobile Phase A consisted of 20 mM ammonium carbonate, 0.1% ammonium hydroxide. Mobile Phase B was 100% acetonitrile. The mobile phase gradient (% B) was as follows: 0 min 80%, 30 min 20%, 31 min 80%, 42 min 80%. All mobile phase was introduced into the ionization source set with the following parameters: sheath gas=40, auxiliary gas=15, sweep gas=5, spray voltage=−3.1 kV or +3.0 kV, capillary temperature=275° C., S-lens RF level=40, probe temperature=350° C. Metabolites were monitored using a polarity-switching full-scan method and identified by accurate mass (±20 ppm) and retention time within 15 seconds of a previously run pure standard. Metabolite peaks were identified and integrated with Xcalibur v.2.2 software (Thermo Fisher Scientific) and normalized to internal standard and to total cell volume, m/z ratios for stable isotopically labeled metabolites were obtained from IsoMETLIN (See, e.g., Cho, K. et al. “isoMETLIN: a database for isotope-based metabolomics.” Anal Chem 86, 9358-9361 (2014)) and corrected for natural abundance.

[8] = system: MDA-MB-231 cells over-expressing PHGDH; experiment: Intracellular serine in MDA-MB-231 cells expressing PHGDH, medium lacking serine and glycine (LC-MS); format: cell-based, human; details: media lacking serine and glycine
Description: To examine target engagement of PHGDH inhibitors in cells, MDA-MB-231 cells that lack detectable expression of PHGDH and MDA-MB-231 cells that stably express full-length human PHGDH (MDA-MB-231-PHGDH) were treated with PHGDH inhibitors in RPMI lacking serine and glycine. A MDA-MB-231 cell line was constructed which expresses PHGDH for comparison against the MDA-MB-231 empty vector line. MDA-MB-231 breast cancer cells were infected with PHGDH-expressing retrovirus.
MDA-MB-231 cells are incapable of synthesizing serine, but the addition of PHGDH permits these cells to synthesize serine. […] Concentrations of serine were determined by comparison with signals of internal standards and calibration curves. PHGDH inhibition reduces steady-state levels of intracellular serine in MDA-MB-231 cells over-expressing PHGDH. Studies were also performed in MDA-MB-468 cells, which over-express PHGDH and are PHGDH-dependent.
as §1, with “0.9% (w/v) NaCl in LCMS-grade water and extracted in 1 mL/well of 80:20 (v/v) methanol:water with 0.01 ng/mL Val-d8 and Phe-d8 as internal extraction standards. The extraction solvent was dried under nitrogen gas and metabolite samples were stored at −80° C. until analysis.” left out
Dried metabolites were resuspended in 100 μL water, centrifuged at 13,000×g at 4° C. for 10 minutes, and the supernatant recovered for analysis. […] Metabolites were monitored using a polarity-switching full-scan method and identified by accurate mass (±20 ppm) and retention time within 15 seconds of a previously run pure standard. […]

[9] = target: T1, PHGDH; experiment: PHGDH inhibition, coupled assay with PSAT1/PSPH and diaphorase/resazurin readout; format: biochemical; details: Table E9; mixture with PSAT1, PSPH; diaphorase/resazurin reporter

T1 sequence (O43175 whole entry): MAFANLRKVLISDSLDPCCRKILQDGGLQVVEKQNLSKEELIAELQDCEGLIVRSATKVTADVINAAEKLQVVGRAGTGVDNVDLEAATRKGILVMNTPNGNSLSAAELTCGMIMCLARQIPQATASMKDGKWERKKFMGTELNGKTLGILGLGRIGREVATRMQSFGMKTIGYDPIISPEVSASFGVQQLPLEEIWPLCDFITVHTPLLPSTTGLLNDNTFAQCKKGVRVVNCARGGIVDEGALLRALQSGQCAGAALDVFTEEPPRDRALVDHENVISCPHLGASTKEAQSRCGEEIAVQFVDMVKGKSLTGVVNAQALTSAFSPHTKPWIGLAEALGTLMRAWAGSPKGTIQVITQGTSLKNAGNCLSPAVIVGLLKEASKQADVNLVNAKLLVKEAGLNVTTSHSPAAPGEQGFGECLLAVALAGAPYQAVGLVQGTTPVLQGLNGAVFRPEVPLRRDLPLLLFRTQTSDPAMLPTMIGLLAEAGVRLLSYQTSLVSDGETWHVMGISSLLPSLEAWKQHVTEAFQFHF
Sequence of GAPDH (P04406 whole entry): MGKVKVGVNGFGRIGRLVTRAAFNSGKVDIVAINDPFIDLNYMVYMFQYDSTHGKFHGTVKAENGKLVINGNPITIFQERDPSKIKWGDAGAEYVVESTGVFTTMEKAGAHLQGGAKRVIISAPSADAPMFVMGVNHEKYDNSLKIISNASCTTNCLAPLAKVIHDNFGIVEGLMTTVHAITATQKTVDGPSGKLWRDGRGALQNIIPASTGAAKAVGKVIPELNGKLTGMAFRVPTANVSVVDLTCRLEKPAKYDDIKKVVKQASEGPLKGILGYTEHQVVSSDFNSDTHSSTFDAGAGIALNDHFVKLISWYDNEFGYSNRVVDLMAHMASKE
Sequence of HSD17B4 (P51659 whole entry, species assumed): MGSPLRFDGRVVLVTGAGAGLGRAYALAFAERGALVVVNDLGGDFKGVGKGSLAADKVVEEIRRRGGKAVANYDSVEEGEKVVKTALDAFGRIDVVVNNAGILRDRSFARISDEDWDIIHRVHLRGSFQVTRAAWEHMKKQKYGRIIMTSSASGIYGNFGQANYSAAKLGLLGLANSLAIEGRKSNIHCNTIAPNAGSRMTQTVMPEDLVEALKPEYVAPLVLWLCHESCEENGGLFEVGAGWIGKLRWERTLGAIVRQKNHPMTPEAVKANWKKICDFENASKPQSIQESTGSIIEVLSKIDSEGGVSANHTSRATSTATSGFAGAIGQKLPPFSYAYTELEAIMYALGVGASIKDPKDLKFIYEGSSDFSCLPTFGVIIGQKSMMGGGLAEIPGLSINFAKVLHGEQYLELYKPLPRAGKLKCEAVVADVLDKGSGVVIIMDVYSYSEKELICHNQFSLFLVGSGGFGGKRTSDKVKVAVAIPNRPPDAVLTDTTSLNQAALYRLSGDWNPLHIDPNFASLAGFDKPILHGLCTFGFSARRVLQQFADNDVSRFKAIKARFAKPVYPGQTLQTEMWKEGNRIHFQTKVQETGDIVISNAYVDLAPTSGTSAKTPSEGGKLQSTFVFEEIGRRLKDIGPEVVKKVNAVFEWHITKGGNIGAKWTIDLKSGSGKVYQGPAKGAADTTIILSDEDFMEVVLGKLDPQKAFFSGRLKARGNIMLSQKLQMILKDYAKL
Sequence of ALDH (P00352 whole entry): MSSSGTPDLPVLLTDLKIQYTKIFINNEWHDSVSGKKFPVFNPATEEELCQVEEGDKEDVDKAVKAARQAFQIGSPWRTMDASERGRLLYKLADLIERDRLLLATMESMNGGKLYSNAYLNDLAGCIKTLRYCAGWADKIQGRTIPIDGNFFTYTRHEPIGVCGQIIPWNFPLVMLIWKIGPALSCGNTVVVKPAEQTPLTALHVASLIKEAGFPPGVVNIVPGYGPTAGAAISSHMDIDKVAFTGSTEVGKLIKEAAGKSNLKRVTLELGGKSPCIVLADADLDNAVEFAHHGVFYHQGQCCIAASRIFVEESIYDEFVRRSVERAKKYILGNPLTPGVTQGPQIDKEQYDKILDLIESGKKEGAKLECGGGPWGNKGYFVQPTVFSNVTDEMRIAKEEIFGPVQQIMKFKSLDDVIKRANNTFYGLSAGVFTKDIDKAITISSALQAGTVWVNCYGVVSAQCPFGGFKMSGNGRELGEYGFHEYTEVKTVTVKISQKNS

IC50 [1]: 10 to 50 µM
IC50 [2]: ≥ 100 µM
IC50 [3]: ≥ 100 µM
Tm of PHGDH [6]: decreased
SMILES: Cc1cc(C)nc(NC(=S)N2CCN(c3ccc(C(F)(F)F)cn3)CC2)c1 [Compound 72, N-(4,6-dimethylpyridin-2-yl)-4-(5-(trifluoromethyl)pyridin-2-yl)piperazine-1-carbothioamide]
activity against a panel of other dehydrogenases [4]: inactive
cross-reactivity, modulation of activity [5]: < 30%
reversibility of inhibition of serine synthesis in cells [7]: reversible
intracellular serine levels [8]: decreased

IC50 [9]: ≥ 20 µM
SMILES: Cc1cc(C)nc(NC(=S)N2CCN(c3ccncc3)CC2)c1 [Compound 71, N-(4,6-dimethylpyridin-2-yl)-4-(pyridin-4-yl)piperazine-1-carbothioamide]
intracellular serine levels [8]: not reduced

IC50 [9]: 10 to 20 µM
SMILES: Cc1cc(C)nc(NC(=S)N2CC3CN(c4ccc(Cl)cc4C(F)(F)F)CC3C2)c1 (stereo not drawn) [Compound 223]

IC50 [9]: ≥ 20 µM
SMILES: Cc1cc(C)nc(NC(=S)N2CCN(C3=Nc4ccccc4Oc4ccccc43)CC2)c1 [Compound 154]
